Measurements reported in ChEMBL document CHEMBL4342409, “Recent advancements of 4-aminoquinazoline derivatives as kinase inhibitors and their applications in medicinal chemistry” (Eur J Med Chem, 2019).
Blank lines part the entries; values can stand above or below the molecule they belong to.

Key:
[1] = Antitumor activity against rat FRE-erbB2 cells xenografted in CD-1 mouse assessed as tumor growth inhibition at 50 mg/kg, po after 1 hr by ELISA relative to control; assay type: functional; conditions: read-out: TGI
[2] = biological target: T1, Vascular endothelial growth factor receptor 2 (Homo sapiens, UniProt P35968); experiment: Inhibition of human recombinant GST-tagged VEGFR2 (catalytic domain 805 to 1356 residues) expressed in Sf9 insect cells incubated for 45 mins by Kinase-Glo assay
T1 sequence (P35968 whole entry, the tested form may be a part): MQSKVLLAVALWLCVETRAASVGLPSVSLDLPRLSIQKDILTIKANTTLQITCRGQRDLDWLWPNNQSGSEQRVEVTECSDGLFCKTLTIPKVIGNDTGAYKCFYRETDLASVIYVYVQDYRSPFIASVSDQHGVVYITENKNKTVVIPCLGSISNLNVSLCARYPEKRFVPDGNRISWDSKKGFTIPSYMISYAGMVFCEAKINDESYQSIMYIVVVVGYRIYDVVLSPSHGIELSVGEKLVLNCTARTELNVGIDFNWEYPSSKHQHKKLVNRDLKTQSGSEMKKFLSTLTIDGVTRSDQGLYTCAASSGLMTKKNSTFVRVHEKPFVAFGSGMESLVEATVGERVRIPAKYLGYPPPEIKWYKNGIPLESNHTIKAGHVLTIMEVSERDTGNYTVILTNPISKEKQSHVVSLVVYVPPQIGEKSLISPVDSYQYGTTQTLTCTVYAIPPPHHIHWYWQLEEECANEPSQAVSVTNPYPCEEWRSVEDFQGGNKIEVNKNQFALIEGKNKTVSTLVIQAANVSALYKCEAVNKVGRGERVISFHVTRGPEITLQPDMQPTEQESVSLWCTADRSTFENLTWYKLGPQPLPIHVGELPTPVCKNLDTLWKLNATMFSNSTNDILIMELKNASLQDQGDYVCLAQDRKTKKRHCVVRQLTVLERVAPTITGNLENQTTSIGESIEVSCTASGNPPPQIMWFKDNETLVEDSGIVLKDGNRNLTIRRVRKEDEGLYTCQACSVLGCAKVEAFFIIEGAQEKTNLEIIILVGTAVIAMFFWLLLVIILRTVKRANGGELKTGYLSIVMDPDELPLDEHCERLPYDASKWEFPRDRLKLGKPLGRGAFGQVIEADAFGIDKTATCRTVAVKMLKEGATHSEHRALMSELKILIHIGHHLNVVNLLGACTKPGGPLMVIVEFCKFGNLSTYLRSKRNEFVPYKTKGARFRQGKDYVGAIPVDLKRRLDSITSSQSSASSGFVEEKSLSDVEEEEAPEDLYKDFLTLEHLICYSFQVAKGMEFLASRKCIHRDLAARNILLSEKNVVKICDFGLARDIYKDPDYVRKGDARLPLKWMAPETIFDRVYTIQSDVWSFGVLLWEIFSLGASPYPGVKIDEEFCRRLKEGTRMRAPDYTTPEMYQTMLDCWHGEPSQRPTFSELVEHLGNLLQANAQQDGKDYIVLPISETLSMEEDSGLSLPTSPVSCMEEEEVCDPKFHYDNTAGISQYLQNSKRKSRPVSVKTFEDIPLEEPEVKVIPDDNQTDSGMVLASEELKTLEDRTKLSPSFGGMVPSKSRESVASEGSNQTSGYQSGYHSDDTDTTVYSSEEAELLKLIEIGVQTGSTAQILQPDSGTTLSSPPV

[3] = biological target: T1, Vascular endothelial growth factor receptor 2; experiment: Inhibition of VEGFR2 in human HUVEC assessed as reduction in cell proliferation at 10 uM incubated for 72 hrs by alamarBlue assay; assay type: cell-based
Plasmodium falciparum = experiment: Antimalarial activity against Plasmodium falciparum 3D7 infected in human erythrocytes after 72 hrs by SYBR Green1 dye based fluorescence assay relative to control; assay type: functional, organism-based; conditions: 3D7, 72 h
Human betaherpesvirus 5 = experiment: Antiviral activity against recombinant HCMV AD169 infected in human foreskin fibroblasts measured after 7 days by GFP-based multi-round replication assay relative to control; assay type: functional, organism-based; conditions: Human betaherpesvirus 5, AD169, 168 h
[4] = Cytotoxicity against human Embryonic stem cells assessed as reduction in cell growth at 2 nM incubated for 48 and 72 hrs by MTT assay; assay type: functional
[5] = Cytotoxicity against human KYSE10 cells assessed as reduction in cell growth at 2 nM incubated for 48 and 72 hrs by MTT assay; assay type: functional
[6] = Cytotoxicity against human SLMT1 cells assessed as reduction in cell growth at 2 nM incubated for 48 and 72 hrs by MTT assay; assay type: functional
[7] = Cytotoxicity against human HKESC1 cells assessed as reduction in cell growth at 2 nM incubated for 48 and 72 hrs by MTT assay; assay type: functional
[8] = Cytotoxicity against human HKESC2 cells assessed as reduction in cell growth at 2 nM incubated for 48 and 72 hrs by MTT assay; assay type: functional
[9] = Cytotoxicity against human EC1 cells assessed as reduction in cell growth at 2 nM incubated for 48 and 72 hrs by MTT assay; assay type: functional
DU-145 = experiment: Antitumor activity against human DU145 cells xenografted in CB17 SCID model mouse assessed as inhibition of tumor growth at 25 mg/kg, po administered for 54 days; assay type: functional; set-up: scale not given: the % may be the effect or the level left
[10] = biological target: T1, Vascular endothelial growth factor receptor 2; experiment: Inhibition of VEGFR2 (unknown origin)
[11] = biological target: T2, Epidermal growth factor receptor (Homo sapiens, UniProt P00533)
T2 sequence (P00533 whole entry): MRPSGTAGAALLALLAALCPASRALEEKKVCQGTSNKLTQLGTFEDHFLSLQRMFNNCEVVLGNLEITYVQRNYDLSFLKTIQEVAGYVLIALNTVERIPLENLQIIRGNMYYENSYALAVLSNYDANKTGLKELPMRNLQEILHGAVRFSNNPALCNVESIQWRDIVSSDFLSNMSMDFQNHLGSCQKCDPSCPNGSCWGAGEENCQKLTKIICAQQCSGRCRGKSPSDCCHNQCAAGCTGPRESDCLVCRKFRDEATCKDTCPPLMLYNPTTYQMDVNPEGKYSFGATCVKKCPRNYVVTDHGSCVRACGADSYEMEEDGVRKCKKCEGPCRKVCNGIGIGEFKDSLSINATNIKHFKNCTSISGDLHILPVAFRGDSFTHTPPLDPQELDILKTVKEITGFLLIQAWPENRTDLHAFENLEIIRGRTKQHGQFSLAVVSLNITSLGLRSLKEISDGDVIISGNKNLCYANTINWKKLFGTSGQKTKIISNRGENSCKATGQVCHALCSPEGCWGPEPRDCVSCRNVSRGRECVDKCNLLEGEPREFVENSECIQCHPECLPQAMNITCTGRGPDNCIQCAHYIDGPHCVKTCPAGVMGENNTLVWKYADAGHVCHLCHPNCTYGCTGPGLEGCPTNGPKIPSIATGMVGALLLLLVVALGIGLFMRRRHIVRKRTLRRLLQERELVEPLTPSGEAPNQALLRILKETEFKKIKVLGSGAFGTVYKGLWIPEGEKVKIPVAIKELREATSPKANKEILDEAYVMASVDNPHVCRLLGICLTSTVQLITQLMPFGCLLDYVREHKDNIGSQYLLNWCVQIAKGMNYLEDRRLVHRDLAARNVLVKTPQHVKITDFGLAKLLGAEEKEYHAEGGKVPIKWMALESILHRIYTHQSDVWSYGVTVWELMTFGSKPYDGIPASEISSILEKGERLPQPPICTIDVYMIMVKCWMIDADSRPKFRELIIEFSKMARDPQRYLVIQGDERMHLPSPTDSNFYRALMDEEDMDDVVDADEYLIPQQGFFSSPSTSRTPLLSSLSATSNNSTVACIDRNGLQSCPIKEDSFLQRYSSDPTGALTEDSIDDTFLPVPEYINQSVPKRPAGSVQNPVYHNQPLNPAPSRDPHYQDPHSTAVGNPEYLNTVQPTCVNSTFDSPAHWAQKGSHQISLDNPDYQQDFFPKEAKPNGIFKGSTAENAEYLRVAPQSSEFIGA
Description: Inhibition of EGFR (unknown origin)

[12] = biological target: T3, Aurora kinase A (Homo sapiens) (UniProt O14965); experiment: Inhibition of Aurora A in human MCF7 cells relative to control; assay type: cell-based; conditions: concentration not given here
T3 sequence (whole entry): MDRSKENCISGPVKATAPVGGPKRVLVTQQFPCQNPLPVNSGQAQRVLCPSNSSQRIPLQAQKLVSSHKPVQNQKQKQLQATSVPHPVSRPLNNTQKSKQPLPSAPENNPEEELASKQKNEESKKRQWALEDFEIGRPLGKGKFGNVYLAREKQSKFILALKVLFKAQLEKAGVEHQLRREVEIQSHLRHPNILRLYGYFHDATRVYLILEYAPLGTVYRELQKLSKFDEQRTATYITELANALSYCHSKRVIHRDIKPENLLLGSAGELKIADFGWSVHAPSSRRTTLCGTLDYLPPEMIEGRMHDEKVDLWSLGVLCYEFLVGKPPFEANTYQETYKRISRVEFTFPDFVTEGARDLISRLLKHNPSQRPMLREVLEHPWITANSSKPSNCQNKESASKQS

[13] = biological target: T2, Epidermal growth factor receptor; experiment: Inhibition of human recombinant GST-tagged EGFR (catalytic domain 695 to end) expressed in baculovirus-infected Sf9 cells assessed as reduction in phosphorylation of polyglutamic acid/tyrosine incubated for 60 mins by ADP-Glo assay
[14] = Antiproliferative activity against human NHBE cells assessed as reduction in cell viability incubated for 72 hrs by MTT assay; assay type: cell-based
[15] = biological target: Epidermal growth factor receptor (Homo sapiens, UniProt P00533, L858R/T790M); experiment: Inhibition of human recombinant GST-tagged EGFR L858R/T790M mutant (catalytic domain 695 to end) expressed in baculovirus-infected Sf9 cells assessed as reduction in phosphorylation of polyglutamic acid/tyrosine incubated for 60 mins by ADP-Glo assay
[16] = biological target: Epidermal growth factor receptor (Homo sapiens, UniProt P00533, T790M); experiment: Inhibition of EGFR T790M mutant (unknown origin)
[17] = biological target: Vascular endothelial growth factor receptor 3 (Homo sapiens, UniProt P35916); experiment: Inhibition of VEGFR3 (unknown origin)
[18] = biological target: T4, Proto-oncogene tyrosine-protein kinase Src (Homo sapiens, UniProt P12931); experiment: Inhibition of SRC (unknown origin)
T4 sequence (P12931 2-536 limits assumed): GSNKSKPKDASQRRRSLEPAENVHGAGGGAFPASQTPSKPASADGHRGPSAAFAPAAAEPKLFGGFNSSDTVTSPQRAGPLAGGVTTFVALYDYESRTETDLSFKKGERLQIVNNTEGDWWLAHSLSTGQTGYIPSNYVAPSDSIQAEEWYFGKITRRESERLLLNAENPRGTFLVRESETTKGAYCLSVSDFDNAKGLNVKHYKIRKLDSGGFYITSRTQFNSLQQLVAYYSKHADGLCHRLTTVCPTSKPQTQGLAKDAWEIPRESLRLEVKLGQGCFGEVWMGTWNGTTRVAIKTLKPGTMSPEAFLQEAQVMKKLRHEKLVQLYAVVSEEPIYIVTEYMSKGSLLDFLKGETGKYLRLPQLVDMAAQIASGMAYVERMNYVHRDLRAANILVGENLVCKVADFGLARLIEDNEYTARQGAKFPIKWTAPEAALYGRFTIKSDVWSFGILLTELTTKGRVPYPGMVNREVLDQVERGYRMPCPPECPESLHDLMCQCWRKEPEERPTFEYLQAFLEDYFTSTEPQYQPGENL

[19] = biological target: Receptor tyrosine-protein kinase erbB-4 (Homo sapiens, UniProt Q15303); experiment: Inhibition of HER4 (unknown origin)
Receptor tyrosine-protein kinase erbB-4, sequence (Q15303 whole entry): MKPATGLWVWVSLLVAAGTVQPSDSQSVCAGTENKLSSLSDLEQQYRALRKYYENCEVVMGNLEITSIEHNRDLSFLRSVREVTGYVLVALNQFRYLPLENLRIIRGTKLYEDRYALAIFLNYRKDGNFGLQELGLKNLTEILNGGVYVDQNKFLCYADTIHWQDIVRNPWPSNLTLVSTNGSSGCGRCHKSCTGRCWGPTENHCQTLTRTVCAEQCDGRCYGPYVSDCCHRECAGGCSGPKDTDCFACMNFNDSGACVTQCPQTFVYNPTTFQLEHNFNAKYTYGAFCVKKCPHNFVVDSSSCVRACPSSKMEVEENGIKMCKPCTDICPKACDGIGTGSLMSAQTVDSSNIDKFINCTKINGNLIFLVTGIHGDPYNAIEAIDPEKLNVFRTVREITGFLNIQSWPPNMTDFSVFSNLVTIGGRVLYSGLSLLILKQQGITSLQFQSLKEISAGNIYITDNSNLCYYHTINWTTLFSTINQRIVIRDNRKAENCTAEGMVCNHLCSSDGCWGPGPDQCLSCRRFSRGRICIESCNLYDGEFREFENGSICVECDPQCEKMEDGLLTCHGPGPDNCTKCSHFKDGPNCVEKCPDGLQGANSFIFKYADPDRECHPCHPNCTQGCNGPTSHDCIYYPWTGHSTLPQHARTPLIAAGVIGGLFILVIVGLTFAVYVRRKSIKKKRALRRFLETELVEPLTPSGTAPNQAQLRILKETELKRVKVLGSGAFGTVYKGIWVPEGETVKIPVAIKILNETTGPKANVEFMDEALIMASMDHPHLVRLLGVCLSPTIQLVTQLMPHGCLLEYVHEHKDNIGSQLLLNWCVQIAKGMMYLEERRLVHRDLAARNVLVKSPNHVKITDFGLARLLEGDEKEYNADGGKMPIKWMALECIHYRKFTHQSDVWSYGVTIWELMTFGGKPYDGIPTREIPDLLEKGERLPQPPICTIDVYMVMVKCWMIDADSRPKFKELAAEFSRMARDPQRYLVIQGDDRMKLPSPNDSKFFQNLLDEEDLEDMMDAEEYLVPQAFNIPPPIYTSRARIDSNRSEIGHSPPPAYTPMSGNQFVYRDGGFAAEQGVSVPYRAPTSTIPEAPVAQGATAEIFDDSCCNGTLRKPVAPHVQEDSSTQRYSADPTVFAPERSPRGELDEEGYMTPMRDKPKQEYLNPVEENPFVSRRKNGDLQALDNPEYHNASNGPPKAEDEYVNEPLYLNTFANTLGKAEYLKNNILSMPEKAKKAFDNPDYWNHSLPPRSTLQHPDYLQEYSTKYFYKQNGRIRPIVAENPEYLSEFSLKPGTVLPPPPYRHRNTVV

A549 = experiment: In vivo inhibition of neo-vascularisation in human A549 cells xenografted in athymic mouse at 50 mg/kg/day, po administered for 5 days measured after 24 hrs of last dose by light microscopy; assay type: functional
[20] = biological target: T4, Proto-oncogene tyrosine-protein kinase Src; experiment: Inhibition of human recombinant Src expressed in baculovirus infected Sf9 insect cells assessed as reduction in phosphorylation of polyglutamic acid/tyrosine incubated for 15 mins by ELISA

Structure (SMILES): COCC(=O)NC/C=C/c1ccc2ncnc(Nc3ccc(Oc4ccc(C)nc4)c(C)c3)c2c1 [CP-724714]
inhibition in vivo at 50 mg/kg [1]: 50%

IC50 [2]: 5 nM | inhibition [3]: 80 to 99.6%
Structure (SMILES): COc1cc2ncnc(-n3ncc4cc(NC(=O)Nc5ccc(C)c(Cl)c5)ccc43)c2cc1OC

Structure (SMILES): C[C@H]1[C@H](OC(=O)CCC(=O)Nc2ccc3ncnc(Nc4ccc(Cl)c(Cl)c4)c3c2)O[C@@H]2O[C@@]3(C)CC[C@H]4[C@H](C)CC[C@@H]1[C@@]24OO3
EC50 (Plasmodium falciparum): 1.4 nM | EC50 (Human betaherpesvirus 5): 150 to 210 µM

Structure (SMILES): CN(C)C/C=C/C(=O)Nc1cc2c(Nc3ccc(F)c(Cl)c3)ncnc2cc1O[C@H]1CCOC1 [AFATINIB]
inhibition at 0.002 µM [4]: > 95% | inhibition at 0.002 µM [5]: > 95% | inhibition at 0.002 µM [6]: > 95% | inhibition at 0.002 µM [7]: > 95% | inhibition at 0.002 µM [8]: > 95% | inhibition at 0.002 µM [9]: > 95%

Structure (SMILES): CN1CCN(CCOc2cc(OC3CCOCC3)c3c(Nc4c(Cl)ccc5c4OCO5)ncnc3c2)CC1 [SARACATINIB]
Activity (DU-145): 45%

IC50 [10]: 103 nM | IC50 [11]: 2 nM
Structure (SMILES): C=CC(=O)Nc1cc2c(Nc3ccc(Br)cc3F)ncnc2cc1OCCCC(=O)CN(C)C

inhibition [12]: 60%
Structure (SMILES): COc1cc2c(Nc3ccc(C(=O)Nc4ccccc4)cc3)ncnc2cc1O

Structure (SMILES): C=CC(=O)Nc1ccc(Nc2ncnc3cc(OC)c(OCCN4CCOCC4)cc23)cc1
IC50 [13]: 105 nM | IC50 [14]: > 34 µM | IC50 [15]: 4.3 nM | IC50 [11]: 105 nM | IC50 [16]: 4.3 nM

IC50 [17]: 11 to 99 nM | IC50 [18]: 11 to 99 nM | IC50 [19]: 11 to 99 nM | IC50 [11]: < 10 nM
Structure (SMILES): COc1cc2ncnc3c2cc1OCCCCCN(C)Cc1ccc(Br)cc1N3 [JNJ-26483327]

Structure (SMILES): COc1cc2/c(=N/c3ccc(Br)cc3F)nc[nH]c2cc1OCC1CCN(C)CC1 [VANDETANIB]
inhibition in vivo at 50 mg/kg/day (A549): 63%

IC50 [20]: 5 nM
Structure (SMILES): COc1ccc(Cl)c(Nc2ncnc3cc(OCC4CCN(C)CC4)c(OC)cc23)c1 [AZM-475271]

IC50 [19]: 4 nM
Structure (SMILES): C[C@@H]1COC(Nc2ccc3ncnc(Nc4ccc(OCc5nccs5)c(Cl)c4)c3c2)=N1 [VARLITINIB]

Structure (SMILES): C[C@H]1[C@@H](CC(=O)Nc2ccc3ncnc(Nc4ccc(Cl)c(Cl)c4)c3c2)O[C@@H]2O[C@@]3(C)CC[C@H]4[C@H](C)CC[C@@H]1[C@@]24OO3
EC50 (Human betaherpesvirus 5): 150 to 210 µM
